Experimental data as given in US11167005B2, “Peptides for treating Sjogren's syndrome” (YEDA RESEARCH AND DEVELOPMENT CO. LTD., priority 2017, dated 2021).
Entries after “also recorded” stand apart in the source; their conditions may differ.

Tests used:
[1] = test system: IDO; assay: IDO gene expression in PBMCs of pSS patients, real-time RT-PCR; type: cell-based, human; settings: for IDO gene expression on addition of recombinant cytokine to cultures of PBMCs with hCDR1: compared with hCDR1 alone (FIG. 3C)
Description: Following 48 hours of incubation, cells were collected and mRNA was prepared from all samples. The expression of various genes was determined using real-time RT-PCR.
Thereafter, RNA was extracted from the cells and gene expression was determined by real-time RT-PCR.
Since both IL-1β and IFN-α were reported to increase the production and expression of IDO, the effects of the addition of recombinant IL-1β or IFN-α to cultures of PBMCs with hCDR1 on IDO gene expression were further tested.
(§1) The effect of IDO inhibition on the expression of the suppressive master gene FOXP3, that is expressed on functional T regulatory cells, was tested.

[2] = test system: FOXP3; assay: FOXP3 gene expression in PBMCs of SS patients, real-time RT-PCR; type: cell-based, human
Description: (§2) 5×10^6/mL peripheral blood mononuclear cells (PBMCs) obtained from blood samples of rheumatoid arthritis (RA) patients, anti-phospholipid syndrome patients (APS) and SS patients were incubated in-vitro in: medium alone, medium containing 25 μg/mL hCDR1 (SEQ ID NO: 1), or medium containing 25 μg/mL of control scrambled peptide (SEQ ID NO: 2). Following 48 hours of incubation, cells were collected and mRNA was prepared from all samples. The expression of various genes was determined using real-time RT-PCR. The control peptide has the same amino acid residues as SEQ ID NO:1 in a scrambled order.
as §1

[3] = test system: pathogenic cytokines; assay: Gene expression of pathogenic cytokines in PBMCs of rheumatoid arthritis patients; type: cell-based, human; settings: 25 μg/mL, 48 hours, vs medium alone or control peptide (FIG. 1A)
Description: as §2

[4] = Phase Ia and Ib clinical studies, humans; cited from earlier work
[5] = test system: DNA; settings: background statement; cited from earlier work
[6] = test system: SLE in murine models; settings: cited from earlier work
[7] = test system: BLyS; assay: BLyS gene expression in PBMCs of SS patients, real-time RT-PCR; type: cell-based, human; settings: 25 μg/mL, 48 hours
Description: as §2

[8] = test system: IDO; assay: IDO gene expression in PBMCs of subjects with RA; type: cell-based, human; settings: 48 hours (FIG. 3B)
[9] = test system: TGF-β; assay: TGF-β gene expression in PBMCs of SS patients, real-time RT-PCR; type: cell-based, human; settings: 48 hours; for expression of the gene for TGF-β: PBMCs isolated from SS patients, p=0.012 vs medium alone, p=0.028 vs control peptide
Description: as §2
PBMCs of patients with pSS were isolated and incubated in vitro for 48 hours in the presence of medium, hCDR1 (SEQ ID NO: 1) or a control scrambled peptide (SEQ ID NO: 2). Thereafter, RNA was extracted from the cells and gene expression was determined by real-time RT-PCR.

[10] = test system: pathogenic cytokines; assay: Gene expression of pathogenic cytokines in PBMCs of anti-phospholipid syndrome patients; type: cell-based, human; settings: 25 μg/mL, 48 hours, vs medium alone or control peptide (FIG. 1B)
Description: as §2

[11] = test system: IL-1β; assay: IL-1β gene expression in PBMCs of SS patients, real-time RT-PCR; type: cell-based, human; settings: 25 μg/mL, 48 hours
Description: as §2

[12] = test system: anti-DNA antibodies; settings: background statement; cited from earlier work
[13] = test system: SLE patients; settings: Phase II clinical trial in SLE patients (Urowitz et al. 2015); cited from earlier work
[14] = test system: MX1; assay: MX1 gene expression in PBMCs of SS patients, real-time RT-PCR; type: cell-based, human; settings: 25 μg/mL, 48 hours
Description: as §2

[15] = test system: TNF-α; assay: TNF-α gene expression in PBMCs of SS patients, real-time RT-PCR; type: cell-based, human; settings: 25 μg/mL, 48 hours
Description: as §2

[16] = PBMCs of pSS patients, compared with hCDR1 alone (FIG. 3D)
[17] = IDO gene, PBMCs of SS patients, 48 hours
[18] = vs medium alone and control scrambled peptide (FIG. 2)
[19] = TGF-β gene, PBMCs of SS patients
[20] = FOXP3 gene, PBMCs of SS patients, 25 μg/mL, 48 hours

Molecule: Cn1cc(C[C@@H](N)C(=O)O)c2ccccc21 [1 mT, 1-methyl-D-tryptophan, reference compound]
- IDO gene expression on addition of 1 mT to PBMC cultures with hCDR1 [1, 16]: significant decrease
- FOXP3 expression on addition of 1 mT to PBMC cultures with hCDR1 [2, 16]: significant down-regulation

Molecule: GYYWSWIRQPPGKGEEWIG [hCDR1, 19-amino-acid synthetic peptide based on CDR1 of the heavy chain of human anti-DNA mAb 16/6Id]
- gene expression of pathogenic cytokines [3]: No significant effects; also recorded: non-significant effects
- safety and tolerability [4]: safe and well tolerated
- Modulation by hCDR1 [1, 17]: Upregulation
- Percent responders exhibiting gene expression modulation, hCDR1 compared to control peptide [1, 17]: (69%)
- Percent responders exhibiting gene expression modulation, hCDR1 compared to medium [1, 17]: (81%)
- Responders/Total, hCDR1 compared to control peptide [1, 17]: 9/13
- Responders/Total, hCDR1 compared to medium [1, 17]: 13/16
- expression of the IDO gene ([1]; PBMCs of patients with pSS, 48 hours, vs medium alone or control peptide (FIG. 3A)): up-regulated significantly
- binding to DNA [5]: does not bind
- serological and clinical disease manifestations of SLE [6]: ameliorate serological and clinical disease manifestations
- gene expression of the BLyS gene [7, 18]: significant reduction
- Modulation by hCDR1 ([7]; BLyS gene): Downregulation
- Percent responders exhibiting gene expression modulation, hCDR1 compared to control peptide ([7]; BLyS gene): (50%)
- Percent responders exhibiting gene expression modulation, hCDR1 compared to medium ([7]; BLyS gene): (70.5%)
- Responders/Total, hCDR1 compared to control peptide ([7]; BLyS gene): 6/12
- Responders/Total, hCDR1 compared to medium ([7]; BLyS gene): 12/17
- expression of IDO [8]: did not affect significantly
- expression of the gene for TGF-β [9]: significantly up-regulated
- Modulation by hCDR1 [9, 19]: Upregulation
- Percent responders exhibiting gene expression modulation, hCDR1 compared to control peptide [9, 19]: (72.7%)
- Percent responders exhibiting gene expression modulation, hCDR1 compared to medium [9, 19]: (70.5%)
- Responders/Total, hCDR1 compared to control peptide [9, 19]: 8/11
- Responders/Total, hCDR1 compared to medium [9, 19]: 12/17
- gene expression of pathogenic cytokines [10]: No significant effects; also recorded: non-significant effects
- gene expression of IL-1β [11, 18]: significant reduction; also recorded: significant effects
- Modulation by hCDR1 ([11]; IL-1β gene): Downregulation
- Percent responders exhibiting gene expression modulation, hCDR1 compared to control peptide ([11]; IL-1β gene): (61.5%)
- Percent responders exhibiting gene expression modulation, hCDR1 compared to medium ([11]; IL-1β gene): (86%)
- Responders/Total, hCDR1 compared to control peptide ([11]; IL-1β gene): 8/13
- Responders/Total, hCDR1 compared to medium ([11]; IL-1β gene): 12/14
- binding to anti-DNA antibodies [12]: does not bind
- Modulation by hCDR1 [2, 20]: Upregulation
- Percent responders exhibiting gene expression modulation, hCDR1 compared to control peptide [2, 20]: (58%)
- Percent responders exhibiting gene expression modulation, hCDR1 compared to medium [2, 20]: (75%)
- Responders/Total, hCDR1 compared to control peptide [2, 20]: 7/12
- Responders/Total, hCDR1 compared to medium [2, 20]: 12/16
- gene expression of the FOXP3 gene ([2]; PBMCs of SS patients, 25 μg/mL, 48 hours, vs medium alone and control scrambled peptide (FIG. 2)): significant increase
- effects on several parameters [13]: beneficial effects
- gene expression of MX1 [14, 18]: significant reduction; also recorded: significant effects
- Modulation by hCDR1 ([14]; MX1 gene): Downregulation
- Percent responders exhibiting gene expression modulation, hCDR1 compared to control peptide ([14]; MX1 gene): (77%)
- Percent responders exhibiting gene expression modulation, hCDR1 compared to medium ([14]; MX1 gene): (77%)
- Responders/Total, hCDR1 compared to control peptide ([14]; MX1 gene): 10/13
- Responders/Total, hCDR1 compared to medium ([14]; MX1 gene): 10/13
- gene expression of TNF-α [15, 18]: significant reduction; also recorded: significant effects
- Modulation by hCDR1 ([15]; TNF-α gene): Downregulation
- Percent responders exhibiting gene expression modulation, hCDR1 compared to control peptide ([15]; TNF-α gene): (61.5%)
- Percent responders exhibiting gene expression modulation, hCDR1 compared to medium ([15]; TNF-α gene): (78.5%)
- Responders/Total, hCDR1 compared to control peptide ([15]; TNF-α gene): 8/13
- Responders/Total, hCDR1 compared to medium ([15]; TNF-α gene): 11/14

Molecule: IFN-α
- IDO gene expression on addition of recombinant cytokine to cultures of PBMCs with hCDR1 [1]: increased IDO gene expression to levels much higher

Molecule: IL-1β: recombinant IL-1β added to cultures of PBMCs with hCDR1
- IDO gene expression on addition of recombinant cytokine to cultures of PBMCs with hCDR1 [1]: increased IDO gene expression to levels much higher

Molecule: SKGIPQYGGWPWEGWRYEI [control scrambled peptide, Control peptide, reference compound]
- expression of the gene for TGF-β [9]: not
